{
  "source": "patent US4520134A",
  "about": "“N-alkyl-4'-hydroxyacetanilides, pharmaceutical compositions comprising them and their use” (priority 1984, dated 1985)",
  "key": {"[1]": {"conditions": "mouse, in vivo, cited from earlier work"}, "[2]": {"conditions": "therapeutically recommended doses for extended periods of time; cited from earlier work"}, "[3]": {"conditions": "mouse, in vivo"}, "[4]": {"conditions": "administered up to one hour after acute toxic amounts of acetaminophen; cited from earlier work"}, "[5]": {"conditions": "mouse, in vivo; cited from earlier work"}, "[6]": {"conditions": "cited from earlier work; for protection against acetaminophen toxicity: free radical scavengers; for effect on acetaminophen hepatotoxicity: Kelleher et al.; for protective effect against paracetamol: 300 mg/kg, 450 mg/kg paracetamol orally"}, "[7]": {"conditions": "administered within 16 hours after an overdose; cited from earlier work"}, "[8]": {"experiment": "CNS sedation by N-isopropylacetaminophen", "assay_type": "in vivo, mice", "protocol": "(§1) The toxicity of N-isopropylacetaminophen was evaluated by injecting mice with this compound at various doss from 100-400 mg/kg, i.p.) and 24 hours later, the animals were sacrificed and histopathology was determined for the liver, kidney and lung.\nThe higher the dose, the longer the sedation. This was also found to be the case when mice were given the drug orally, except the dose needed to give the same sedative activity was higher (400-600 mg/kg, oral). This sedative effect of the drug lasted from 30 min. at 250 mg/kg to approximately 1.5 hr at 400 mg/kg. At the higher dose, the mice went to sleep."}, "[9]": {"experiment": "hot plate test (Ankier), time to lick a back paw", "assay_type": "in vivo, mice", "conditions": "30 mg/kg i.p.; for average time before licking a back paw: 10 minutes after dose, plate 54° C., untreated control 44 seconds", "protocol": "Two groups of mice, six mice per group, were used in the hot plate test described by S. I. Ankier European Journal of Pharmacology 27:1-4 (1974). The control group, which was untreated, at a plate temperature of 54° C. took an average of 44 seconds to lick a back paw. The test group received a dose of N-ethyl-4'-hydroxyacetanilide (30 mg/kg) administered intraperitoneally, and when placed on the hot plate at 54° C. 10 minutes later, shown an average time of 64 seconds before licking a back paw. The analgesic activity of this compound thus increased the pain-response time by almost 50 percent.\nThe analgesic properties of N-isopropylacetaminophen were tested using the hot plate test described by Ankier (Eur. J. Pharmacol. 27: 1-(1974)). Two groups of mice, 6 animals/group were used. The first group was placed on the hot plate, individually, and time need to lick the back paw was recorded and found to be 44 seconds (average) at 54° C. The second group of mice each received 30 mg/kg (i.p.) N-isopropylacetaminophen and after 10 minutes placed on the hot plate at 54° C. The time required to lick the rear paw was measured and found to be 64 seconds (average), thus increased response time by 50%."}, "[10]": {"experiment": "toxicity of N-isopropylacetaminophen, histopathology of liver, kidney and lung", "assay_type": "in vivo, mice", "conditions": "100-400 mg/kg i.p.; 24 hours", "protocol": "as §1"}, "[11]": {"conditions": "vitamin E deficient rats; cited from earlier work"}, "[12]": {"experiment": "enhancement of acetaminophen hepatotoxicity (applicant's finding)", "conditions": "in vivo"}, "[13]": {"conditions": "man; cited from earlier work"}, "[14]": {"conditions": "chronic use; cited from earlier work"}, "[15]": {"test_system": "cytochrome P-450", "conditions": "cited from earlier work"}, "[16]": {"conditions": "1894 paper; cited from earlier work"}, "[17]": {"conditions": "1894 paper, without supporting data; cited from earlier work"}, "[18]": {"conditions": "500 mg/kg i.p. in propylene glycol"}},
  "note": "Where two headings read alike, the source gives them in different places.",
  "data": [
    {"compound": "CC(=O)Nc1ccc(O)cc1", "note": "[acetaminophen]", "values": [
      {"measurement": "immediate symptomatic effects", "setting": "mouse, in vivo", "value": "No immediate symptomatic effects"},
      {"measurement": "oral LD50", "setting": "[1]; po", "value": "about 400 mg/kg"},
      {"measurement": "hepatotoxicity at the oral LD50 dose", "setting": "[1]", "value": "severe hepatotoxicity"},
      {"measurement": "hepatotoxicity on chronic ingestion", "setting": "[2]", "value": "massive hepatic necrosis"},
      {"measurement": "fraction of the liver necrotic (estimated)", "setting": "[3]", "value": "~60", "unit": "%"},
      {"measurement": "liver histopathology", "setting": "[3]", "value": "severe hepatic necrosis"}
    ]},
    {"compound": "C[S+](C)[O-]", "note": "[DMSO, Dimethyl sulfoxide]", "values": [
      {"measurement": "protection against hepatotoxic effects of acetaminophen", "setting": "[4]", "value": "protect mice against the hepatotoxic effects of acetaminophen"},
      {"measurement": "protection against CCl4 hepatotoxicity", "setting": "[5]", "value": "inability of DMSO to protect mice against CCl4 hepatotoxicity"}
    ]},
    {"compound": "CC(CN1c2ccccc2Sc2ccccc21)N(C)C", "note": "(centres unmarked) [promethazine]", "values": [
      {"measurement": "protection against acetaminophen toxicity", "setting": "[6]", "value": "afford protection against acetaminophen toxicity"}
    ]},
    {"compound": "selenium", "values": [
      {"measurement": "protection against acetaminophen hepatotoxicity", "setting": "[6]; man and experimental animals", "value": "varying degrees of protection"}
    ]},
    {"compound": "N[C@@H](CCC(=O)N[C@@H](CS)C(=O)NCC(=O)O)C(=O)O", "note": "[glutathione]", "values": [
      {"measurement": "protection against acetaminophen toxicity", "setting": "[6]", "value": "afford protection against acetaminophen toxicity"}
    ]},
    {"compound": "CC(=O)N[C@@H](CS)C(=O)O", "note": "[N-acetylcysteine]", "values": [
      {"measurement": "prevention of hepatotoxicity", "setting": "[7]", "value": "effective in preventing hepatotoxicity"}
    ]},
    {"compound": "CN(C)CCO", "note": "[β-dimethylaminoethanol]", "values": [
      {"measurement": "protection against acetaminophen toxicity", "setting": "[6]", "value": "afford protection against acetaminophen toxicity"}
    ]},
    {"compound": "CC(=O)N(c1ccc(O)cc1)C(C)C", "note": "[N-isopropylacetaminophen, N-isopropyl-4'-hydroxyacetanilide]", "values": [
      {"measurement": "duration of sedative effect", "setting": "[8]; 250 mg/kg", "value": 30, "unit": "min"},
      {"measurement": "duration of sedative effect", "setting": "[8]; 400 mg/kg", "value": "approximately 1.5 hr"},
      {"measurement": "CNS sedation", "setting": "[8]; 250-400 mg/kg i.p.", "value": "significant CNS sedation"},
      {"measurement": "additional CNS effects after recovery from sedation", "setting": "[8]; after recovery", "value": "no additional CNS effects were observed"},
      {"measurement": "sleep", "setting": "[8]; higher dose", "value": "went to sleep"},
      {"measurement": "dose giving significant CNS sedation in all mice", "setting": "[8]; i.p.", "value": "250 to 400", "unit": "mg/kg"},
      {"measurement": "dose needed to give the same sedative activity", "setting": "[8]; oral", "value": "400 to 600", "unit": "mg/kg"},
      {"measurement": "average time before licking a back paw", "setting": "[9]", "value": 64, "unit": "s"},
      {"measurement": "increase in response time", "setting": "[9]; vs untreated control, 54° C.", "value": 50, "unit": "%"},
      {"measurement": "histopathology of liver, kidney and lung", "setting": "[10]", "value": "no organ showed any signs of injury"}
    ]},
    {"compound": "Cc1c(C)c2c(c(C)c1O)CCC(C)(CCCC(C)CCCC(C)CCCC(C)C)O2", "note": "(stereo not drawn) [vitamin E, α-tocopherol]", "values": [
      {"measurement": "protection against acetaminophen hepatotoxicity", "setting": "[11]", "value": "protects vitamin E deficient rats"},
      {"measurement": "effect on acetaminophen hepatotoxicity", "setting": "[6]", "value": "reduce heptatotoxicity"},
      {"measurement": "protection against acetaminophen hepatotoxicity", "setting": "[6]; man and experimental animals", "value": "varying degrees of protection"}
    ]},
    {"compound": "Cc1cc(C(C)(C)C)c(O)c(C(C)(C)C)c1", "note": "[BHT, butylated hydroxytoluene]", "values": [
      {"measurement": "effect on acetaminophen hepatotoxicity", "setting": "[12]", "value": "profoundly enhance its hepatotoxicity"}
    ]},
    {"compound": "O=C1O[C@H]([C@@H](O)CO)C(O)=C1O", "note": "[ascorbic acid]", "values": [
      {"measurement": "apparent half-life of acetaminophen", "setting": "[13]", "value": "did not affect the apparent half-life"},
      {"measurement": "excretion rate of acetaminophen sulfate", "setting": "[13]", "value": "rapid and pronounced decrease"},
      {"measurement": "protective effect against paracetamol", "setting": "[6]; nonsustained release form", "value": "no protective effect"},
      {"measurement": "protective effect against paracetamol", "setting": "[6]; sustained release form", "value": "substantial protective effect"},
      {"measurement": "protection against acetaminophen hepatotoxicity", "setting": "[6]; animal studies", "value": "may also provide such protection"}
    ]},
    {"compound": "N[C@@H](CS)C(=O)O", "note": "[cysteine]", "values": [
      {"measurement": "protection against acetaminophen hepatotoxicity", "setting": "[6]; man and experimental animals", "value": "varying degrees of protection"}
    ]},
    {"compound": "CCO", "note": "[ethanol]", "values": [
      {"measurement": "effect on acetaminophen-mediated hepatotoxicity", "setting": "[14]", "value": "markedly increased"},
      {"measurement": "induction of cytochrome P-450", "setting": "[15]", "value": "demonstrated to induce cytochrome P-450"}
    ]},
    {"compound": "NCCS", "note": "[cysteamine]", "values": [
      {"measurement": "protection against acetaminophen hepatotoxicity", "setting": "[6]; man and experimental animals", "value": "varying degrees of protection"}
    ]},
    {"compound": "COc1ccc(O)c(C(C)(C)C)c1", "note": "[BHA, butylated hydroxyanisole]", "values": [
      {"measurement": "effect on acetaminophen hepatotoxicity", "setting": "[12]", "value": "profoundly enhance its hepatotoxicity"}
    ]},
    {"compound": "CSCC[C@H](N)C(=O)O", "note": "[methionine]", "values": [
      {"measurement": "protection against acetaminophen hepatotoxicity", "setting": "[6]; man and experimental animals", "value": "varying degrees of protection"}
    ]},
    {"compound": "CCN(C(C)=O)c1ccc(O)cc1", "note": "[N-ethyl-4'-hydroxyacetanilide]", "values": [
      {"measurement": "antipyretic activity", "setting": "[16]", "value": "no antipyretic activity"},
      {"measurement": "duration of sedative effects", "setting": "[18]", "value": "about one-half"},
      {"measurement": "sedative effects", "setting": "[18]", "value": "sedative effects"},
      {"measurement": "time to ataxia of the hind legs", "setting": "[18]", "value": "about 15 minutes"},
      {"measurement": "time to drowsiness", "setting": "[18]", "value": "about 25 minutes"},
      {"measurement": "duration of sleep", "setting": "600 mg/kg oral, aqueous vehicle, pH 12", "value": "25 to 40", "unit": "min"},
      {"measurement": "average time before licking a back paw", "setting": "[9]", "value": 64, "unit": "s"},
      {"measurement": "increase in pain-response time", "setting": "[9]; vs untreated control, 54° C.", "value": "~50", "unit": "%"},
      {"measurement": "analgesic properties", "setting": "[17]", "value": "no analgesic properties"}
    ]},
    {"compound": "CCCOC(=O)c1cc(O)c(O)c(O)c1", "note": "[propyl gallate]", "values": [
      {"measurement": "effect on acetaminophen hepatotoxicity", "setting": "[6]", "value": "reduce heptatotoxicity"}
    ]},
    {"compound": "CC1NC(C(=O)O)CS1", "note": "(centres unmarked) [2-methylthiazolidine-4-carboxylic acid]", "values": [
      {"measurement": "protection against hepatotoxins", "setting": "[6]; forms cysteine in the liver", "value": "can also protect against heptotoxins"}
    ]},
    {"compound": "CCC1(c2ccccc2)C(=O)NC(=O)NC1=O", "note": "[phenobarbital]", "values": [
      {"measurement": "induction of cytochrome P-450", "setting": "[15]", "value": "well-known cytochrome P-450 inducer"}
    ]}
  ]
}
